Assay results from patent US9233979B2, “Compounds that are ERK inhibitors” (Merck Sharp & Dohme Corp., priority 2012, dated 2016).

Target: phosphorylated active hERK2 enzyme (Homo sapiens (Human), UniProt P28482)
Test: Active Human ERK2 (hERK2) Activity Assay (IMAP-FP)
Assay type: biochemical
Conditions: Table 6, 0.5 nM hERK2, 30 μM ATP, 10 point titration, read-out: AERK2 IC50
Procedure, shortened: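 IMAP detection beads in buffer with 24 mM NaCl stopped the reaction, and fluorescence polarization was read after 60 min binding.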

Chain of phosphorylated active hERK2 enzyme (P28482 whole entry): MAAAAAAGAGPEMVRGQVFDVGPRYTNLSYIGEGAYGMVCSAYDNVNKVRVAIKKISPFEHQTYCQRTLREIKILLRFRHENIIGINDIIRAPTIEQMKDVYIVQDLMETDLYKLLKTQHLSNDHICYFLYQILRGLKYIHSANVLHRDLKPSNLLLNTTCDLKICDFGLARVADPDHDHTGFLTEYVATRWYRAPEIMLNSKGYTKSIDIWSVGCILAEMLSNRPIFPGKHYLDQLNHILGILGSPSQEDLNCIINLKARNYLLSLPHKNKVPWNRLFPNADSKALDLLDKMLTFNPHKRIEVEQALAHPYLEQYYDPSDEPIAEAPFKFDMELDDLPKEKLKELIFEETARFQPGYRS

Row | Compound | IC50 [nM]
1 | CN(C)C[C@H](NC(=O)Nc1cc2[nH]nc(N)c2cn1)c1ccccc1 [Example 263, 1-(3-amino-1H-pyrazolo[4,3-c]-pyridin-6-yl)-3-[(1R)-2-(dimethylamino)-1-phenylethyl]urea] | 127
2 | Nc1n[nH]c2cc(NC(=O)NCc3ccc(F)c(Cl)c3)ncc12 [Example 264, 1-(3-amino-1H-pyrazolo[4,3-c]-pyridin-6-yl)-3-(3-chloro-4-fluorobenzyl)urea] | 940
3 | Nc1n[nH]c2cc(NC(=O)NCc3cccc(F)c3)ncc12 [Example 265, 1-(3-amino-1H-pyrazolo[4,3-c]-pyridin-6-yl)-3-(3-fluorobenzyl)urea] | 24.5
4 | Cc1cccc(Cl)c1CNC(=O)Nc1cc2[nH]nc(N)c2cn1 [Example 266, 1-(3-amino-1H-pyrazolo[4,3-c]pyridin-6-yl)-3-(2-chloro-6-methylbenzyl)urea] | 13.8
5 | Nc1n[nH]c2cc(NC(=O)NCc3ccccc3OC(F)F)ncc12 [Example 267, 1-(3-amino-1H-pyrazolo[4,3-c]pyridin-6-yl)-3-[2-(difluoro-methoxy)benzyl]-urea] | 5.3
6 | COc1cccc(F)c1CNC(=O)Nc1cc2[nH]nc(N)c2cn1 [Example 269, 1-(3-amino-1H-pyrazolo[4,3-c]pyridin-6-yl)-3-(2-fluoro-6-methoxy-benzyl)urea] | 3.3
7 | C[C@@H](NC(=O)Nc1cc2[nH]nc(N)c2cn1)c1cccc(F)c1 [Example 270, 1-(3-amino-1H-pyrazolo[4,3-c]pyridin-6-yl)-3-[(1R)-1-(3-fluorophenyl)ethyl]urea] | 3.2
8 | C[C@@H](NC(=O)Nc1cc2[nH]nc(N)c2cn1)c1ccc(F)c(Cl)c1 [Example 271, 1-(3-amino-1H-pyrazolo[4,3-c]pyridin-6-yl)-3-[(1R)-1-(3-chloro-4-fluorophenyl)-ethyl]urea] | 17.3
9 | C[C@@H](NC(=O)Nc1cc2[nH]nc(N)c2cn1)c1cccc(Cl)c1 [Example 272, 1-(3-amino-1H-pyrazolo[4,3-c]pyridin-6-yl)-3-[(1R)-1-(3-chloro-phenyl)ethyl]urea] | 5.6
10 | CC[C@@H](NC(=O)Nc1cc2[nH]nc(N)c2cn1)c1ccc(Cl)cc1 [Example 273, 1-(3-amino-1H-pyrazolo[4,3-c]pyridin-6-yl)-3-[(1R)-1-(4-chloro-phenyl)propyl]urea] | 2.6
11 | CN(C)c1ncccc1CNC(=O)Nc1cc2[nH]nc(N)c2cn1 [Example 274, 1-(3-amino-1H-pyrazolo[4,3-c]-pyridin-6-yl)-3-{[2-(dimethylamino)-pyridin-3-yl]-methyl}urea] | 32.4
12 | CC(NC(=O)Nc1cc2[nH]nc(N)c2cn1)c1ccc(F)c(F)c1 (stereo not drawn) [Example 275, 1-(3-amino-1H-pyrazolo[4,3-c]-pyridin-6-yl)-3-[1-(3,4-difluorophenyl)-ethyl]urea] | 4.6
13 | Cc1cc([C@@H](C)NC(=O)Nc2cc3[nH]nc(N)c3cn2)ccc1Cl [Example 276, 1-(3-amino-1H-pyrazolo[4,3-c]pyridin-6-yl)-3-[(1R)-1-(4-chloro-3-methylphenyl)-ethyl]urea] | 2.3
14 | CN1C[C@@H](NC(=O)Nc2cc3[nH]nc(N)c3cn2)[C@H](c2ccccc2)C1 [Example 277, 1-(3-amino-1H-pyrazolo[4,3-c]pyridin-6-yl)-3-[(3S,4R)-1-methyl-4-phenylpyrrolidin-3-yl]urea] | 3.2
15 | CCNc1n[nH]c2cc(NC(=O)NCc3ncccc3Cl)ncc12 [Example 278, 1-[(3-chloro-pyridin-2-yl)-methyl]-3-[3-(ethylamino)-1H-pyrazolo[4,3-c]-pyridin-6-yl]urea] | 21.8
16 | CCNc1n[nH]c2cc(NC(=O)NCc3ncccc3F)ncc12 [Example 279, 1-[3-(ethylamino)-1H-pyrazolo[4,3-c]pyridin-6-yl]-3-[(3-fluoropyridin-2-yl)methyl]urea] | 63.4
17 | CCNc1n[nH]c2cc(NC(=O)NC(C)c3ccc(C)nc3)ncc12 (stereo not drawn) [Example 280, 1-[3-(ethylamino)-1H-pyrazolo[4,3-c]pyridin-6-yl]-3-[1-(6-methyl-pyridin-3-yl)-ethyl]urea] | 143
18 | CCNc1n[nH]c2cc(NC(=O)NC(C)c3cc(C)ccn3)ncc12 (stereo not drawn) [Example 281, 1-[3-(ethylamino)-1H-pyrazolo[4,3-c]pyridin-6-yl]-3-[1-(4-methyl-pyridin-2-yl)-ethyl]urea] | 98.3
19 | CCNc1n[nH]c2cc(NC(=O)NC(C)c3ccc(F)nc3)ncc12 (stereo not drawn) [Example 282, 1-[3-(ethylamino)-1H-pyrazolo[4,3-c]pyridin-6-yl]-3-[1-(6-fluoropyridin-3-yl)ethyl]urea] | 34.2
20 | CCNc1n[nH]c2cc(NC(=O)NC(C)c3cccnc3)ncc12 (stereo not drawn) [Example 283, 1-[3-(ethylamino)-1H-pyrazolo[4,3-c]pyridin-6-yl]-3-(1-pyridin-3-ylethyl)urea] | 44.4
21 | CCNc1n[nH]c2cc(NC(=O)NC(C)c3ccc(F)cn3)ncc12 (stereo not drawn) [Example 284] | 33
22 | COC(=O)Nc1n[nH]c2cc(NC(=O)N[C@@H](c3ccccc3)C3(O)CCCC3)ncc12 [Example 289, methyl [6-({[(S)-(1-hydroxycyclo-pentyl)(phenyl)-methyl]carbamoyl}amino)-1H-pyrazolo[4,3-c]-pyridin-3-yl]-carbamate] | 0.9
23 | COC(=O)Nc1n[nH]c2cc(NC(=O)N[C@@H](c3ccccc3)[C@H]3CCCO3)ncc12 [Example 290, methyl {6-[({(S)-phenyl[(2R)-tetra-hydrofuran-2-yl]-methyl}carbamoyl)amino]-1H-pyrazolo[4,3-c]-pyridin-3-yl}-carbamate] | 0.6
24 | COC(=O)Nc1n[nH]c2cc(NC(=O)N[C@H](C)C3CCCCC3)ncc12 [Example 292, methyl [6-({[(1R)-1-cyclohexylethyl]-carbamoyl}amino)-1H-pyrazolo[4,3-c]pyridin-3-yl]-carbamate] | 19.7
25 | COC(=O)Nc1n[nH]c2cc(NC(=O)N[C@H](C)c3ccc(F)c(Cl)c3)ncc12 [Example 300, methyl [6-({[(1R)-1-(3-chloro-4-fluorophenyl)ethyl]carbamoyl}amino)-1H-pyrazolo[4,3-c]pyridin-3-yl]-carbamate] | 2.9
26 | CC[C@@H](NC(=O)Nc1cc2[nH]nc(NC(=O)OC)c2cn1)c1ccc(Cl)cc1 [Example 301, methyl [6-({[(1R)-1-(4-chlorophenyl)-propyl]carbamoyl}amino)-1H-pyrazolo[4,3-c]-pyridin-3-yl]-carbamate] | 1.4
27 | COC(=O)Nc1n[nH]c2cc(NC(=O)N[C@H](C)c3ccc(Cl)c(Cl)c3)ncc12 [Example 302, methyl [6-({[(1R)-1-(3,4-dichloro-phenyl)ethyl]-carbamoyl}amino)-1H-pyrazolo[4,3-c]pyridin-3-yl]-carbamate] | 0.7

Other lines, results leading:

Row | IC50 [nM] | Compound
28 | 10.7 | COc1ccccc1CNC(=O)Nc1cc2[nH]nc(N)c2cn1 [Example 268, 1-(3-amino-1H-pyrazolo[4,3-c]pyridin-6-yl)-3-(2-methoxy-benzyl)urea]
29 | 5.2 | COC(=O)Nc1n[nH]c2cc(NC(=O)N[C@H](C)c3ccc(Cl)cc3)ncc12 [Example 286, methyl [6-({[(1R)-1-(4-chlorophenyl)-ethyl]carbamoyl}-amino)-1H-pyrazolo[4,3-c]pyridin-3-yl]carbamate]
30 | 1 | COC(=O)Nc1n[nH]c2cc(NC(=O)N[C@H](C)c3cccc(Cl)c3)ncc12 [Example 287, methyl [6-({[(1R)-1-(3-chlorophenyl)-ethyl]carbamoyl}-amino)-1H-pyrazolo[4,3-c]-pyridin-3-yl}-carbamate]
31 | 0.6 | COC(=O)Nc1n[nH]c2cc(NC(=O)N[C@H](COC(F)F)c3ccccc3)ncc12 [Example 288, methyl [6-({[(1S)-2-(difluoro-methoxy)-1-phenylethyl]-carbamoyl}amino)-1H-pyrazolo[4,3-c]pyridin-3-yl}-carbamate]
32 | 1 | COC(=O)Nc1n[nH]c2cc(NC(=O)N[C@@H]3CN(C)C[C@H]3c3ccccc3)ncc12 [Example 291, methyl[6-({[(3S,4R)-1-methyl-4-phenyl-pyrrolidin-3-yl]carbamoyl}-amino)-1H-pyrazolo[4,3-c]pyridin-3-yl]-carbamate]
33 | 5.8 | COC(=O)Nc1n[nH]c2cc(NC(=O)NC3CNc4ccccc4C3)ncc12 (stereo not drawn) [Example 293, methyl {6-[(1,2,3,4-tetrahydroquinolin-3-ylcarbamoyl)-amino]-1H-pyrazolo[4,3-c]-pyridin-3-yl}-carbamate]
34 | 26.4 | COC(=O)Nc1n[nH]c2cc(NC(=O)NC3COc4ccccc4C3)ncc12 (stereo not drawn) [Example 294, methyl {6-[(3,4-dihydro-2H-chromen-3-ylcarbamoyl)amino]-1H-pyrazolo[4,3-c]pyridin-3-yl}-carbamate]
35 | 55 | COC(=O)Nc1n[nH]c2cc(NC(=O)N[C@@H]3CCOc4ccccc43)ncc12 [Example 295, methyl (6-{[(4R)-3,4-dihydro-2H-chromen-4-ylcarbamoyl]-amino}-1H-pyrazolo[4,3-c]-pyridin-3-yl)-carbamate]
36 | 2.5 | COC(=O)Nc1n[nH]c2cc(NC(=O)NCc3ccccc3OC(F)F)ncc12 [Example 296, methyl [6-({[2-(difluoromethoxy)-benzyl]carbamoyl}-amino)-1H-pyrazolo[4,3-c]-pyridin-3-yl}-carbamate]
37 | 2 | COC(=O)Nc1n[nH]c2cc(NC(=O)NCc3ccccc3OC)ncc12 [Example 297, methyl (6-{[(2-methoxybenzyl)-carbamoyl]amino}-1H-pyrazolo[4,3-c]pyridin-3-yl)-carbamate]
38 | 1.2 | COC(=O)Nc1n[nH]c2cc(NC(=O)NCc3c(F)cccc3OC)ncc12 [Example 298, methyl (6-{[(2-fluoro-6-methoxy-benzyl)carbamoyl]-amino}-1H-pyrazolo[4,3-c]-pyridin-3-yl)-carbamate]
39 | 1.6 | COC(=O)Nc1n[nH]c2cc(NC(=O)N[C@H](C)c3cccc(F)c3)ncc12 [Example 299, methyl [6-({[(1R)-1-(3-fluorophenyl)-ethyl]carbamoyl}-amino)-1H-pyrazolo[4,3-c]-pyridin-3-yl}-carbamate]
